# Experiments:
# [1] = biological target: D(2) dopamine receptor (Homo sapiens) (UniProt P14416); test: Displacement of [3H]7-OH-DPAT from human recombinant dopamine D2S receptor at 10 uM after 60 mins by scintillation counting analysis relative to control
# Caco-2 = test: Cytotoxicity against human Caco-2 cells measured after 8 days; assay type: functional, cell-based; details: Caco-2, 192 h
# AU565 = test: Cytotoxicity against human AU565 cells measured after 8 days; assay type: functional, cell-based; details: AU565, 192 h
# [2] = Cytotoxicity against human 501A cells measured after 8 days; assay type: functional, cell-based; details: 192 h
# [3] = Cytotoxicity against human KE-97 cells measured after 8 days; assay type: functional, cell-based; details: KE-97, 192 h
# WiDr = test: Cytotoxicity against human WiDr cells measured after 8 days; assay type: functional, cell-based; details: 192 h
# [4] = biological target: T1, ATPase family AAA domain-containing protein 2 (Homo sapiens, UniProt Q6PL18); test: Binding affinity to human partial length ATAD2A (Q981 to R1108 residues) expressed in bacterial expression system by BROMOscan assay
# T1 sequence (Q6PL18 whole entry): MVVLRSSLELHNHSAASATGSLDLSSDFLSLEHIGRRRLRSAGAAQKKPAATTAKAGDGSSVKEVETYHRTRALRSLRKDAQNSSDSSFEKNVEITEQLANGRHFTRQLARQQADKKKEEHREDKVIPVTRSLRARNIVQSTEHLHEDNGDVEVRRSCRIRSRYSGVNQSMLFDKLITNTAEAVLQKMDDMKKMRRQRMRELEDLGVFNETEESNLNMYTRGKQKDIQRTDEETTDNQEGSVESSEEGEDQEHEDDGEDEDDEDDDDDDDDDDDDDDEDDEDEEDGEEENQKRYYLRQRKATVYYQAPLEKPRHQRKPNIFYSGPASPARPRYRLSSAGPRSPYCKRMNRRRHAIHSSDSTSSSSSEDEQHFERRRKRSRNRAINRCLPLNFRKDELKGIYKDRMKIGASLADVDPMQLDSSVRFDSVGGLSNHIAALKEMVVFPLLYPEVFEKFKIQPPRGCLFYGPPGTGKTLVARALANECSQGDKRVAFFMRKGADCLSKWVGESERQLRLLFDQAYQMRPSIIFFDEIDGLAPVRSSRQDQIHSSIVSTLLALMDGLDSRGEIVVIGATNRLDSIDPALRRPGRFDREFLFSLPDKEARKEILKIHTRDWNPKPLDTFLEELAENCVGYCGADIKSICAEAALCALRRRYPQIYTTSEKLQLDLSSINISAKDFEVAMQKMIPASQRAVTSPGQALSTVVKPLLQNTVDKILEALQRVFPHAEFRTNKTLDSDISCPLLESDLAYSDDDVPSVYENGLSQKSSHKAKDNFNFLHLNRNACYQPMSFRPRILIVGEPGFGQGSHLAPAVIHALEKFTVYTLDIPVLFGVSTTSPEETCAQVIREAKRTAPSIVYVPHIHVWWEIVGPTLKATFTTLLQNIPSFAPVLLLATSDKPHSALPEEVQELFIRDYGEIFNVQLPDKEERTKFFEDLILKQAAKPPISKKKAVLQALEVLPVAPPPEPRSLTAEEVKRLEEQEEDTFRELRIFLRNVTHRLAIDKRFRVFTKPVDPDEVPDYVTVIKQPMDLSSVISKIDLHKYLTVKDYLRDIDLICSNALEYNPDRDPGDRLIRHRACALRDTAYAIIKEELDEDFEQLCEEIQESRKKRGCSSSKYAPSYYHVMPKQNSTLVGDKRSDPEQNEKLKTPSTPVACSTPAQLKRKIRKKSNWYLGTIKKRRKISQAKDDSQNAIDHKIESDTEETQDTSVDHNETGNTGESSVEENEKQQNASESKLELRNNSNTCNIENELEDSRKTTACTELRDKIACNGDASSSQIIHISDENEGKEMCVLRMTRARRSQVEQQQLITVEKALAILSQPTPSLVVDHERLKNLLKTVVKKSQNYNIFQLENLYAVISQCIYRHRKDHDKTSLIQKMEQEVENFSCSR
# LNCaP = test: Cytotoxicity against human LNCaP/Ner cells measured after 8 days; assay type: functional, cell-based; details: 192 h
# [5] = Cytotoxicity against human GP2d cells measured after 8 days; assay type: functional, cell-based; details: 192 h
# SW1573 = test: Cytotoxicity against human SW1573 cells measured after 8 days; assay type: functional, cell-based; details: SW1573, 192 h
# [6] = biological target: Bromodomain adjacent to zinc finger domain protein 2A (Homo sapiens, UniProt Q9UIF9); test: Binding affinity to human partial length BAZ2A (M1792 to L1905 residues) expressed in bacterial expression system by BROMOscan assay
# [7] = Cytotoxicity against human HCC4019 cells measured after 8 days; assay type: functional, cell-based; details: HCC4019, 192 h
# NCI-H1993 = test: Cytotoxicity against human NCI-H1993 cells measured after 8 days; assay type: functional, cell-based; details: NCI-H1993, 192 h
# NUGC-4 = test: Cytotoxicity against human NUGC-4 cells measured after 8 days; assay type: functional, cell-based; details: NUGC-4, 192 h
# [8] = biological target: T2, Bromodomain-containing protein 4 (Homo sapiens, UniProt O60885); test: Binding affinity to full length BRD4 short isoform (unknown origin) by BROMOscan assay
# COLO-678 = test: Cytotoxicity against human COLO-678 cells measured after 8 days; assay type: functional, cell-based; details: COLO-678, 192 h
# [9] = biological target: T3, Muscarinic acetylcholine receptor M2 (Homo sapiens) (UniProt P08172); test: Displacement of [3H]AF-DX 384 from human recombinant M2 receptor at 10 uM after 60 mins by scintillation counting analysis relative to control
# T3 sequence (whole entry): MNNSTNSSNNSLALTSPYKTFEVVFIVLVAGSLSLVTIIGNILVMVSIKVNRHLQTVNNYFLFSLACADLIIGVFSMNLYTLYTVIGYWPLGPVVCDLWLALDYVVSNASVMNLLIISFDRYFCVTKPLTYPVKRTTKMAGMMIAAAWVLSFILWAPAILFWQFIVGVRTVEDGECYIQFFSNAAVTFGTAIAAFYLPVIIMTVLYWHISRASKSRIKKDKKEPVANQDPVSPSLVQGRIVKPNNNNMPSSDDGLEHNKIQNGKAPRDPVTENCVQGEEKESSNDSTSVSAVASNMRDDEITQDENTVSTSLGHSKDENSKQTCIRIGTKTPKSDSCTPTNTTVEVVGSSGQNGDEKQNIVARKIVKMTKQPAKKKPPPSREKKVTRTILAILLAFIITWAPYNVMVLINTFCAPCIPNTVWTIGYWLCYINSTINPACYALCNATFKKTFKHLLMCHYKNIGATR
# [10] = Cytotoxicity against human OCI-M2 cells measured after 8 days; assay type: functional, cell-based; details: OCI-M2, 192 h
# NCI-H2405 = test: Cytotoxicity against human NCI-H2405 cells measured after 8 days; assay type: functional, cell-based; details: NCI-H2405, 192 h
# [11] = biological target: Cyclin-dependent kinase 2/cyclin A (Homo sapiens) (UniProt P24941+P20248+P78396); test: Inhibition of CDK2/cyclin A (unknown origin) at 1 uM relative to control; assay type: protein-complex assay
# [12] = biological target: T2, Bromodomain-containing protein 4; test: Binding affinity to BRD4 bromodomain 1/2 long isoform (unknown origin) by BROMOscan assay
# [13] = Cytotoxicity against human OCUM-1 cells measured after 8 days; assay type: functional, cell-based; details: OCUM1, 192 h
# Sequence of D(2) dopamine receptor (Homo sapiens) (P14416 whole entry): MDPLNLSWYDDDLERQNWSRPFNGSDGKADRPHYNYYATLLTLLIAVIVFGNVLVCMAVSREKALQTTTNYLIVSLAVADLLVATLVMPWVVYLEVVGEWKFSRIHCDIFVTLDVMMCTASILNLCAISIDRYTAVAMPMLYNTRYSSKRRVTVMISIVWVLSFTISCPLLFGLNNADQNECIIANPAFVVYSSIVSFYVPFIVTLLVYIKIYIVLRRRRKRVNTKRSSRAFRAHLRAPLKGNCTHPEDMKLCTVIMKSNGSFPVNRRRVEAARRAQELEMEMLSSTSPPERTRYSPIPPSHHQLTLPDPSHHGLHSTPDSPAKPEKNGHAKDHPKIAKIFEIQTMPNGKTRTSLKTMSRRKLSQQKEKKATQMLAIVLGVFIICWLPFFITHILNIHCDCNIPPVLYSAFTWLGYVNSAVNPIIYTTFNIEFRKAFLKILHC
# Sequence of Bromodomain adjacent to zinc finger domain protein 2A (Q9UIF9 whole entry, the tested form may be a part): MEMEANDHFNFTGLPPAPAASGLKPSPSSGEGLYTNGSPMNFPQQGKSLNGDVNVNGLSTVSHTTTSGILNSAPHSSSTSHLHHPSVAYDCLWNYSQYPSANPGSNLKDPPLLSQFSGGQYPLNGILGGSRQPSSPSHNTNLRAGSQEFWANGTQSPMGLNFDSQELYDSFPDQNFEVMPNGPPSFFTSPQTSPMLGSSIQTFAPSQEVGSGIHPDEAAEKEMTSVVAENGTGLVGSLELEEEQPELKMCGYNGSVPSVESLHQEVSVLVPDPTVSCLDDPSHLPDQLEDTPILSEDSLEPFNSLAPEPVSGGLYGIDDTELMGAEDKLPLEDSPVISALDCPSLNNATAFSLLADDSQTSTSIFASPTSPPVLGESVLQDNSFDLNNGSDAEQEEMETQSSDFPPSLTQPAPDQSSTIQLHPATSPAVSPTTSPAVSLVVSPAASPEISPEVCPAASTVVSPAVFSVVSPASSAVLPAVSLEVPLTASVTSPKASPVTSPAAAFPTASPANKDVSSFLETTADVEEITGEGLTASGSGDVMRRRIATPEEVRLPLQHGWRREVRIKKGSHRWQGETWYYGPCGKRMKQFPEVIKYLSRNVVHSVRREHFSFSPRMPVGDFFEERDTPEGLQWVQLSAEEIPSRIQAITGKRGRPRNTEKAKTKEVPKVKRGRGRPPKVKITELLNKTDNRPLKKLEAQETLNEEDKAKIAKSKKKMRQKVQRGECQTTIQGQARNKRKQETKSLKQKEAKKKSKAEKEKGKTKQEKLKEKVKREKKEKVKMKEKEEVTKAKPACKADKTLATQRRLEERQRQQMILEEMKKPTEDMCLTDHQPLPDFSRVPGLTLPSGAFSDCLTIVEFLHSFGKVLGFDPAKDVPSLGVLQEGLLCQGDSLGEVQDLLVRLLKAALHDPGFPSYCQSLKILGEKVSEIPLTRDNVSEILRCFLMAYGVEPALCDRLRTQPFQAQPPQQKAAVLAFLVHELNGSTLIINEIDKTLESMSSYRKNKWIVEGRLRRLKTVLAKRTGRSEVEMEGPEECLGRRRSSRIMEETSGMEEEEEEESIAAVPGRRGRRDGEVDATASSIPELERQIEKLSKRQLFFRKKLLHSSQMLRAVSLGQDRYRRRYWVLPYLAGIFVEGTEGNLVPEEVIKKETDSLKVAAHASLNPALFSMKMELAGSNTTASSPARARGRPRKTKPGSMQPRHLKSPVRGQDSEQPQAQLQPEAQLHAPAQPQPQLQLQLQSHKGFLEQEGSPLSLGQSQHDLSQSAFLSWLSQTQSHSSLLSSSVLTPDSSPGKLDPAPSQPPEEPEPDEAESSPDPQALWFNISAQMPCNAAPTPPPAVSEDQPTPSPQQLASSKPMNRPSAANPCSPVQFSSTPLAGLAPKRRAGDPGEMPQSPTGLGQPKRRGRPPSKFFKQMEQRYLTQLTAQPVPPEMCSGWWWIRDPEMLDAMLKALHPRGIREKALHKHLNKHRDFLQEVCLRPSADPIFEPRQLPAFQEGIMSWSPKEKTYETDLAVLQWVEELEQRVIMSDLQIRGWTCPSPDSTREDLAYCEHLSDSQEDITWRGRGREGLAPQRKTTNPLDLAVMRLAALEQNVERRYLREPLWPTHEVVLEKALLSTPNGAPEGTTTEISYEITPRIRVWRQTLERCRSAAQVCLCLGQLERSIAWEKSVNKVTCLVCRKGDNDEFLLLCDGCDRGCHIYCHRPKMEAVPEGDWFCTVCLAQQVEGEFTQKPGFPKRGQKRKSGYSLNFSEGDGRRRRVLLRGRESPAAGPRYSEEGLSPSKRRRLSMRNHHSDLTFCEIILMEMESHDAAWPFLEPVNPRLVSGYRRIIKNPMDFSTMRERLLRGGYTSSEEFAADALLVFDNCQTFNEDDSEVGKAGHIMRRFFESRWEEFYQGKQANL
Compound,Activity [1] [%],IC50 (Caco-2) [µM],IC50 (AU565) [µM],IC50 [2] [µM],IC50 [3] [µM],IC50 (WiDr) [µM],Kd [4] [µM],IC50 (LNCaP) [µM],IC50 [5] [µM],IC50 (SW1573) [µM],Kd [6] [µM],IC50 [7] [µM],IC50 (NCI-H1993) [µM],IC50 (NUGC-4) [µM],Kd [8] [µM],IC50 (COLO-678) [µM],Activity [9] [%],IC50 [10] [µM],IC50 (NCI-H2405) [µM],Kd [12] [µM],further results
C/C=C/Cn1cc(-c2ccc(C(C)(C)O)cc2OC)c2cc[nH]c2c1=O,6,20,20,20,20,20,> 10,17.8,20,20,> 10,20,20,20,0.58,20,-10,20,20,1.7,inhibition [11]: 1%; IC50 [13]: 20 µM
C/C=C/Cn1cc(-c2cc(OC)c(C(C)(C)O)cc2OC)c2cc(C)[nH]c2c1=O,,,,,,,9.3,,,,> 10,,,,> 10,,,,,> 10,
C/C=C/Cn1cc(-c2ccc(C(=O)N3CCOCC3)cc2)c2cc[nH]c2c1=O,-3,20,20,20,20,20,> 10,16.7,20,20,> 10,20,20,20,1.2,20,-7,5.21,20,8.8,inhibition [11]: 1.6%; IC50 [13]: 20 µM
C/C=C/Cn1cc(-c2cc(OC)c(C(=O)N3CCOCC3)cc2OC)c2cc(C)[nH]c2c1=O,13,2,2,2,2,2,> 10,2,2,2,> 10,2,2,2,> 10,2,-8,2,2,> 10,inhibition [11]: 0%; IC50 [13]: 2 µM

# — ChEMBL document CHEMBL5260810, “Inhibition of bromodomain-containing protein 9 for the prevention of epigenetically-defined drug resistance” (Bioorg Med Chem Lett, 2017)
